Test results taken from patent US9155329B2, “Flavour compositions” (Givaudan Nederland Services B.V., priority 2005, dated 2015).
Read-outs that look alike come from different tables or passages of the source.

Experiments:
[1] = sample B: ice cream (8% vegetable fat) + strawberry flavour + 7 ppm substance, versus A without substance
Protocol: […] ice cream (8% vegetable fat) samples were prepared: • A: Ice cream (see table 2)+strawberry flavour • B: Ice cream (see table 2)+strawberry flavour+7 ppm N-gluconyl 1-amino-2-methyl-2-propanol (as prepared in Example 5)
The ice creams were tasted by a professional panel.

[2] = Aqueous NaCl solution tasting by a sensory panel; settings: solution B: 0.5% NaCl and 12 ppm substance; solution A (0.5% NaCl alone) described as salty
Protocol: Two aqueous solutions were prepared: • A. 0.5% NaCl • B. 0.5% NaCl and 12 ppm of N-lactoyl 2-amino-2-methyl-propanol (as prepared in Example 4)

[3] = Carbonated orange flavoured soft drink evaluation; settings: compared to original drink
Protocol: Two different soft drinks A and B were prepared by adding respectively 40 ppb and 4 ppm of N-lactoyl 2-amino-2-methyl-propanol (as prepared in Example 4) to a commercially available carbonated orange flavoured soft drink.

[4] = Protocol: Four yoghurt samples were prepared: • A: Yoghurt 0% fat+strawberry flavour+sucralose (25%) 300 ppm • B: Yoghurt 0% fat+strawberry flavour+sucralose (25%) 300 ppm+10 ppm N-gluconyl 2-amino-2-methyl-propanol (as prepared in Example 8) • C: Yoghurt 0% fat+strawberry flavour+4% sugar • D: Yoghurt 0% fat+strawberry flavour+4% sugar+10 ppm N-gluconyl 2-amino-2-methyl-propanol (as prepared in Example 8)
The yoghurts were tasted by a professional panel.

[5] = standard chicken soup dosed to 5 ppm substance, versus reference soup
Protocol: A standard chicken soup was prepared. The quantity was split in two. One part was kept as reference and the other part was dosed to contain 5 ppm of N-gluconyl 2-amino-2-methyl-propanol (as prepared in Example 8). The soups were tasted by a professional panel.

## CC(C)(O)CNC(=O)[C@H](O)[C@@H](O)[C@H](O)[C@H](O)CO [N-gluconyl 1-amino-2-methyl-2-propanol]
[1]
  taste description: more round and natural taste, very clear sweet enhancement and increased creaminess

## CC(O)C(=O)NC(C)(C)CO (stereo not shown) [N-lactoyl 2-amino-2-methyl-propanol, N-lactoyl 2-amino-2-methylpropanol]
[2]
  taste description: “high impact”, “bouillon”, “meaty”, “salty”, “umami” and “salivating”
[3]; sample A: 40 ppb substance in commercial carbonated orange flavoured soft drink
  taste description: more natural, with a more juicy character than the original
[3]; sample B: 4 ppm substance in commercial carbonated orange flavoured soft drink
  taste description: tingling character typical of the flavour modulating substances of the present invention, which was judged as very pleasant and particularly well suited for the orange flavour

## CC(C)(CO)NC(=O)[C@H](O)[C@@H](O)[C@H](O)[C@H](O)CO [N-gluconyl 2-amino-2-methyl-propanol, N-gluconyl 2-amino-2-methylpropanol]
[4]; sample B: yoghurt 0% fat + strawberry flavour + sucralose (25%) 300 ppm + 10 ppm substance, compared to A without substance
  taste description: fuller more round and natural taste, more sugar sweetness, significantly less bitter metallic aftertaste compared to A
[4]; sample D: yoghurt 0% fat + strawberry flavour + 4% sugar + 10 ppm substance, compared to C without substance
  taste description: fuller more round and natural taste, more intense sweet compared to C
[5]
  taste description: more tasteful, more complete, more body, more fatty
